This is an account of results in PubChem BioAssay (NCI).

“And” between values parts separate entries of the source, which are not always exact repeats. Identical values can stand only once.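 Protocol summary: plate cells (96-well), add compound at 5 concentrations, incubate 48 h, interpolate endpoints linearly. GI50 is the concentration that inhibits growth by half. At the TGI there is no net growth.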

What all share (assay): NCI-60 cell line screen, 48 h
Assay [1] deals with NCI-H226 lung.
Assay [2] has as its system OVCAR-3 ovarian.
The subject of assay [3] is CCRF-CEM leukemia.
In assay [4] the test system is OVCAR-4 ovarian.
For assay [5], the system named is SK-MEL-28 melanoma.
The subject of assay [6] is HT29 colon.
The test system of assay [7] is NCI/ADR-RES ovarian.
Assay [8] relates to MOLT-4 leukemia.
In assay [9] the test system is K-562 leukemia.
Assay [10] deals with PC-3 prostate.

`Cn1c(N)c(N=Nc2ccc(S(N)(=O)=O)cc2)c(=O)n(C)c1=O`: the TGI in assay [1], in [2], in assay [3], in assay [4], in [5] and in assay [6] was over 100 µM in each case. Besides, the TGI in assay [7], in assay [8], in assay [9] and in [10] was over 100 µM throughout.

For the molecule `COc1ccc(/C(C)=C(\c2ccc(Cl)cc2)c2ccc(OCCN3CCCCC3)cc2)cc1F`, the GI50 in assay [1] was 4.35 µM; in [2] it was 3250 nM; in assay [3] it was 3980 nM; in assay [4], 2.99 µM; in [5], 2670 nM; in [6] it was 650 nM. The GI50 is 3.53 µM in assay [7], 3.4 µM in assay [8], 698 nM in [9] and 2670 nM in assay [10]. The TGI in assay [1] is over 16.7 µM; in assay [2] it was 6.65 µM; in assay [3], 16.1 µM; in assay [4], 8.99 µM; in [5], 5.3 µM; in [6], over 16.7 µM. Further, the TGI in assay [7] was 9.67 µM; in [8], 11.3 µM; in assay [9], 5.93 µM; in [10] it was 7.47 µM.

Turning to `CC(=O)OC1C(OC/C2=C/C3[C@@H](C(C)C)CC=C(C)[C@@H]3CC(OC(=O)/C=C/c3cn(C)cn3)[C@]3(C)C=C[C@@]2(O)O3)OCC(O)C1O` (stereo partly drawn), the TGI in assay [1] was over 50 µM; in assay [2], 0.0268 µM; in assay [3], over 50 µM; in [4], over 50 µM; in [5] it was over 50 µM; in assay [6] it was over 50 µM. The TGI was over 39.4 µM in assay [7], over 50 µM in assay [8], over 50 µM in assay [9] and over 50 µM in [10]. The GI50 was 10.5 nM in assay [2]; 39.9 nM in assay [3]; 0.0586 µM in assay [4]; 38.9 nM in [5]; 12.4 nM in assay [6]; 4.81 µM in assay [7]. Moreover, the GI50 was 0.0415 µM in assay [8], 15.7 nM in [9] and 27.1 nM in assay [10].

As for `C[CH2][Ge]1([CH2]C)[CH2]CC2(CCN(CCCN(C)C)C2)C[CH2]1`, the GI50 in assay [1] is 2.24 µM and 17.3 µM; in assay [2], 2150 nM and 2810 nM; in assay [3] it was 709 nM and 1400 nM; in assay [4], 0.694 µM and 4.41 µM; in [5] it was 1340 nM and 1790 nM; in assay [6], 400 nM and 2240 nM. Moreover, the GI50 in [7] is 1.83 µM and 5.51 µM; in [9], 237 nM and 1110 nM; in assay [10], 1800 nM. Besides, the TGI in [1] is 4.92 µM and 32.1 µM; in [2], 4.99 µM and 6.87 µM; in assay [3], 2.33 µM and 2.44 µM; in [4], 6.79 µM and 11.6 µM; in assay [5], 2.71 µM and 3.27 µM; in assay [6], 1.59 µM and 6.05 µM. The TGI in assay [7] is 4.58 µM and 13.4 µM; in assay [8], 2.91 µM and 25.7 µM; in assay [9] it was 2.36 µM and 5.13 µM; in assay [10] it was 4.44 µM and 1.34 µM.

For `COc1cccc2c1C(=N)c1c(O)c3c(c(O)c1C2=O)C[C@@](O)(C(C)=O)C[C@@H]3OC1CC(N)C(O)C(C)O1` (stereo partly drawn), the TGI in [2] was 5.43 µM and 4.73 µM and 13 µM; in assay [3] it was 0.473 µM and 0.975 µM; in [4], 7.58 µM and 7.84 µM and 8 µM; in assay [5], 5.83 µM and 13.7 µM and 20.1 µM; in assay [6], 7.19 µM and 4.43 µM and 1.71 µM; in assay [9] it was 3.34 µM and 14.8 µM and 6.67 µM. Besides, in assay [10], the TGI was determined as 2.98 µM. For the same molecule, the GI50 in assay [7] was 0.466 µM.

With `COc1ccc(C2CC(c3cccc(Nc4ccnc5cc(Cl)ccc45)c3)=NN2c2ccc(Cl)cc2)cc1` (stereo not drawn), the GI50 was 14.2 µM in assay [1]; 11000 nM in assay [2]; 1840 nM in assay [3]; 7070 nM in [5]; 9.51 µM in [7]; 3.18 µM in assay [8]. The GI50 in assay [9] is 2750 nM; in [10] it was 1180 nM. For the same molecule, the TGI in assay [1] was 94.8 µM; in [2], over 100 µM; in [3], 43.4 µM; in assay [5] it was 66.9 µM; in assay [7], 43.4 µM; in assay [8], 69.5 µM. Also, the TGI is over 100 µM in assay [9] and 64.5 µM in assay [10].

For the molecule `Oc1c(Br)cc(Br)c2cccnc12`, the GI50 in assay [1] is 5.09 µM; in [2] it was 3530 nM; in assay [3] it was 2630 nM; in assay [4], 4.09 µM; in assay [5], 4790 nM; in [6], 6550 nM. In addition, the GI50 in [7] is 2.82 µM; in assay [8], 3 µM; in [10], 4500 nM. Moreover, the TGI was 30.2 µM in [1]; 15.2 µM in [2]; 8.83 µM in [3]; 97 µM in assay [4]; over 100 µM in [5]; 26.1 µM in assay [6]. In addition, the TGI was over 100 µM in assay [7], 8.49 µM in assay [8] and over 100 µM in assay [10].

In the case of `C=C1C(=O)O[C@H]2[C@H]1CC/C(Cn1cc(CNC(=O)c3cc4ccccc4[nH]3)nn1)=C\CC[C@@]1(C)O[C@@H]21`, the GI50 in assay [1] is 2.57 µM; in [2] it was 2120 nM; in assay [3] it was 527 nM; in assay [4], 4.52 µM; in [5], 2180 nM; in [6], 2850 nM. The GI50 in assay [7] is 69.3 µM; in assay [8], 2.71 µM; in assay [10], 1880 nM. Further, the TGI in [1] is 6.15 µM; in assay [2] it was 5.63 µM; in assay [3], 5.21 µM; in assay [4], 17.1 µM; in assay [5], 4.69 µM; in assay [6], 10.1 µM. The TGI is over 100 µM in assay [7], 7.15 µM in assay [8] and 4.79 µM in [10].

For `COc1ccc(C(=O)CC(Cl)=C(Cl)Cl)cc1`, the GI50 in assay [1] was 34.1 µM; in assay [2], 20600 nM; in assay [3], 30300 nM; in [4] it was 19.8 µM; in [5], 16000 nM; in assay [6], 22000 nM. Moreover, the GI50 in assay [7] was 25.2 µM; in assay [8], 19.7 µM; in [10] it was 26700 nM. In addition, the TGI was 85.7 µM in assay [1]; 41.2 µM in assay [2]; over 100 µM in assay [3]; 56.1 µM in assay [4]; 37.2 µM in assay [5]; 83.5 µM in assay [6]. Moreover, the TGI in assay [7] was 59.4 µM; in assay [8], 64.2 µM; in assay [10], over 100 µM.

For `COC(=O)[C@@H](C)C[C@H](Cc1ccccc1)NC(=O)c1cccc([C@@H](C[C@H](C(C)C)N(C)C(=O)[C@@H](NC(=O)[C@H]2CCCCN2C)C(C)C)OC(C)=O)n1`, the GI50 in assay [2] is under 1.67 nM; in assay [3] it was 2.03 nM; in assay [4], 0.00477 µM; in assay [6] it was under 1.67 nM; in assay [7], 0.152 µM; in [8], 0.00815 µM. Besides, the GI50 in [9] and in assay [10] was under 1.67 nM throughout. Moreover, the TGI was 0.00268 µM in [2]; over 16.7 µM in assay [3]; over 16.7 µM in [4]; over 16.7 µM in assay [6]; over 5.17 µM in assay [7]; over 16.7 µM in assay [8]. Besides, the TGI in assay [9] and in assay [10] was over 16.7 µM throughout.

In the case of `O=C1C2=C(Nc3cc([N+](=O)[O-])ccc3N2)OC1c1c[nH]c2ccc(COc3ccccc3)cc12` (stereo not drawn), the TGI in [1], in assay [2], in assay [4], in [5], in assay [6] and in assay [7] was over 100 µM each time. Moreover, the TGI is 40.4 µM in assay [8], over 100 µM in assay [9] and over 100 µM in assay [10].

`CCCC1C2=C(C(=O)OC2=O)C2C(CC)CC3=C(C(=O)OC3=O)C12` (stereo not drawn): the TGI in [1], in assay [2], in assay [3], in assay [5], in assay [6] and in assay [7] was over 100 µM throughout. Also, the TGI in assay [8], in [9] and in [10] was over 100 µM throughout.

In the case of `COc1cc(OC)c(-c2oc3ccccc3c(=O)c2O)c(OC)c1`, the TGI in assay [1] was over 100 µM; in assay [3], over 100 µM; in assay [5] it was over 100 µM; in assay [6], over 100 µM; in assay [7], 5.05 µM; in assay [8], over 100 µM. In addition, the TGI in assay [9] and in assay [10] was over 100 µM in each case.
